This passage reports Ki results from BindingDB's records for PubMed 8301582 (Neuroscience Research Centre, 1994).

Structures are written as SMILES.

The assay deals with D(3) dopamine receptor (Homo sapiens, UniProt P35462).
Sequence of D(3) dopamine receptor (P35462 as listed by the source): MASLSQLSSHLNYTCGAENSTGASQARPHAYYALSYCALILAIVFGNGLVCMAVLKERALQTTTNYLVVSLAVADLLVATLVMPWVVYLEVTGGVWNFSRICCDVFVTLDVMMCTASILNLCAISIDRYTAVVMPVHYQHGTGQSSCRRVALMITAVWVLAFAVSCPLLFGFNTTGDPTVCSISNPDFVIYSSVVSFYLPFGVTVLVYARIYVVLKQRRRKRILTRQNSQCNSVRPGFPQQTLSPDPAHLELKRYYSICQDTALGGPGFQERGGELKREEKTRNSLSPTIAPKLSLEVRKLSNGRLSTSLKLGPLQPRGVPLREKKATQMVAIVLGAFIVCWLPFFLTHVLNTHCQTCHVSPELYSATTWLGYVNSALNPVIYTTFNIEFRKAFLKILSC
For the compound `CCCN(CCC)C1CCc2cc(O)c(O)cc2C1` (racemic) [CAS_62421-17-4], affinity was put at a Ki of 0.68 nM.
The value for `COc1ccc2c(c1O)-c1c3c(cc4c1[C@H](C2)N(C)CC4)OCO3` [(S)-11-methoxy-7-methyl-6,7,7a,8-tetrahydro-5H-benzo[g][1,3]dioxolo[4',5':4,5]benzo[1,2,3-de]quinolin-12-ol] was 5200 nM; that for `Cc1cc2c(cc1C)CC(N)CC2` (configuration not stated) [ADTN DIMETHYL 5,6] was 17 nM; that for `CC(C)C[C@H]1C(=O)N2CCC[C@H]2[C@]2(O)O[C@](NC(=O)[C@@H]3C=C4c5cccc6[nH]c(Br)c(c56)C[C@H]4N(C)C3)(C(C)C)C(=O)N12` [Bromocriptine+ (GTP+)] was 2.1 nM.
Consider `CCCN1CCc2cc(F)cc3c2C1Cc1ccc(O)c(O)c1-3` (configuration not stated) [CAS_18426-20-5], for which the Ki is 0.21 nM. Compared with the last compound, the Ki is about 10-fold lower.
The value for `NC1CCc2cc(OC(=O)c3ccccc3)c(OC(=O)c3ccccc3)cc2C1` (configuration not stated) [CAS_129816] was 160 nM.
On to `CCCN(CCC)C1C=Cc2c(OC)cccc2C1C` (configuration not stated) [CAS_5311190], for which affinity was put at a Ki of 4.9 nM.

By Ki is commonly meant a measure of affinity in units of concentration, obtained from inhibition or displacement.
